Drawing on patent publication US20250051321A1, “TRICYCLIC DERIVATIVE AND PREPARATION METHOD THEREFOR AND APPLICATION THEREOF” (SHANGHAI JEMINCARE PHARMACEUTICAL CO., LTD., priority 2021, published 2025), this text covers IC50 for 12 molecules.

The test system of the first assay is plasma LPA 18:1 and LPA 18:2. Nature of the assay: Human plasma ex vivo assay (LPA 18:1 / 18:2 by LC-MS/MS). In kind it is biochemical. As to conditions: 37° C., 2 hours, LPA 18:1, read-out: Human plasma ex vivo assay IC50 (18:1 LPA). The essentials:
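Human plasma incubated 2 h at 37° C with compound (8 points, 1:3 dilution, top 10 μM, 0.1% DMSO), then quenched with 0.1% FA containing LPA 17:0 internal standard.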
Take `CN(c1nc(-c2ccc(F)cc2)c(C#N)s1)c1c2c(nc3c(F)cc(N4CC5(CN(CC(=O)N6CC(O)C6)C5)C4)cc13)CCC2` [Example A9]: the IC50 was found to be 351 nM.

For `CN(c1nc(-c2ccc(F)cc2)c(C#N)s1)c1c2c(nc3ccc(N4CCN(CC(=O)N5CC(O)C5)CC4)nc13)CCC2` [Example A10], the IC50 stood at 192 nM.

Take `CN(c1nc(-c2ccc(F)cc2)c(C#N)s1)c1c2c(nc3c(F)cc(N4CC5(CCN(CC(=O)N6CC(O)C6)CC5)C4)cc13)CCC2` [Example A11]: the IC50 came out at 299 nM.

Regarding `CN(c1nc(-c2ccc(F)cc2)c(C#N)s1)c1c2c(nc3ccc(N4CCN(CC(=O)N5CC(O)C5)CC4)nc13)CCO2` [Example A12], the IC50 came to 64.5 nM.

Take `Cc1cc(N2CCN(CC(=O)N3CC(O)C3)CC2)cc2c(N(C)c3nc(-c4ccc(F)cc4)c(C#N)s3)c3c(nc12)CCC3` [Example A14]: the IC50 turned out to be 304 nM.

For the molecule `CN(c1nc(-c2ccc(F)cc2)c(C#N)s1)c1c2c(nc3c(F)cc(N4CCN(CC(=O)N5CC(F)C5)CC4)cc13)CCC2` [Example A16], the IC50 was 286 nM.

As for `CN(c1nc(-c2ccc(F)cc2)c(C#N)s1)c1c2c(nc3c(F)cc(N4CC5(CN(CC(=O)N6CC(O)C6)C5)C4)cc13)CC2` [Example A17], the half-maximal inhibitory concentration (IC50) came to 164 nM.

In the case of `CN(c1nc(-c2ccc(F)cc2)c(C#N)s1)c1c2c(nc3c(F)cc(N4CC5(CN(CC(=O)N6CC(CO)C6)C5)C4)cc13)CC2` [Example A18], the half-inhibitory concentration (IC50) was 162 nM.

With `CN(c1nc(-c2ccc(F)cc2)c(C#N)s1)c1c2c(nc3c(F)cc(N4CCN(CC(=O)N5CC(O)C5)CC4)cc13)COC2` [Example A19], the IC50 came to 118 nM.

In the case of `CN(c1nc(-c2ccc(F)cc2)c(C#N)s1)c1c2c(nc3cnc(N4CCN(CC(=O)N5CC(O)C5)CC4)cc13)CCC2` [Example A20], the IC50 came to 170 nM.

Regarding `CN(c1nc(-c2ccc(F)cc2)c(C#N)s1)c1c2c(nc3ncc(N4CCN(CC(=O)N5CC(O)C5)CC4)cc13)CCC2` [Example A21], the IC50 was 70.2 nM.

Consider `CN(c1nc(-c2ccc(F)cc2)c(C#N)s1)c1c2c(nc3c(F)cc(N4CC5(CN(CC(=O)N6CC(O)C6)C5)C4)cc13)COC2` [Example A24], for which the IC50 is 466 nM.

The assay is the same for the next values; noted with them: 37° C., 2 hours, LPA 18:2, read-out: Human plasma ex vivo assay IC50 (18:2 LPA).
In the case of `CN(c1nc(-c2ccc(F)cc2)c(C#N)s1)c1c2c(nc3c(F)cc(N4CC5(CN(CC(=O)N6CC(O)C6)C5)C4)cc13)CCC2` [Example A9], the IC50 is 323 nM.

In the case of `CN(c1nc(-c2ccc(F)cc2)c(C#N)s1)c1c2c(nc3ccc(N4CCN(CC(=O)N5CC(O)C5)CC4)nc13)CCC2` [Example A10], the IC50 is 157 nM.

Take `CN(c1nc(-c2ccc(F)cc2)c(C#N)s1)c1c2c(nc3c(F)cc(N4CC5(CCN(CC(=O)N6CC(O)C6)CC5)C4)cc13)CCC2` [Example A11]: the IC50 came out at 359 nM.

In the case of `CN(c1nc(-c2ccc(F)cc2)c(C#N)s1)c1c2c(nc3ccc(N4CCN(CC(=O)N5CC(O)C5)CC4)nc13)CCO2` [Example A12], the IC50 was determined as 91.6 nM.

As for `Cc1cc(N2CCN(CC(=O)N3CC(O)C3)CC2)cc2c(N(C)c3nc(-c4ccc(F)cc4)c(C#N)s3)c3c(nc12)CCC3` [Example A14], the IC50 was found to be 338 nM.

`CN(c1nc(-c2ccc(F)cc2)c(C#N)s1)c1c2c(nc3c(F)cc(N4CCN(CC(=O)N5CC(F)C5)CC4)cc13)CCC2` [Example A16]: the IC50 worked out at 341 nM.

Consider `CN(c1nc(-c2ccc(F)cc2)c(C#N)s1)c1c2c(nc3c(F)cc(N4CC5(CN(CC(=O)N6CC(O)C6)C5)C4)cc13)CC2` [Example A17], for which the IC50 worked out at 172 nM.

Consider `CN(c1nc(-c2ccc(F)cc2)c(C#N)s1)c1c2c(nc3c(F)cc(N4CC5(CN(CC(=O)N6CC(CO)C6)C5)C4)cc13)CC2` [Example A18], for which the IC50 turned out to be 192 nM.

For the molecule `CN(c1nc(-c2ccc(F)cc2)c(C#N)s1)c1c2c(nc3c(F)cc(N4CCN(CC(=O)N5CC(O)C5)CC4)cc13)COC2` [Example A19], the IC50 amounted to 132 nM.

Take `CN(c1nc(-c2ccc(F)cc2)c(C#N)s1)c1c2c(nc3cnc(N4CCN(CC(=O)N5CC(O)C5)CC4)cc13)CCC2` [Example A20]: the IC50 worked out at 203 nM.

As to `CN(c1nc(-c2ccc(F)cc2)c(C#N)s1)c1c2c(nc3ncc(N4CCN(CC(=O)N5CC(O)C5)CC4)cc13)CCC2` [Example A21], the IC50 was 55.9 nM.

Consider `CN(c1nc(-c2ccc(F)cc2)c(C#N)s1)c1c2c(nc3c(F)cc(N4CC5(CN(CC(=O)N6CC(O)C6)C5)C4)cc13)COC2` [Example A24], for which the 50% inhibitory concentration (IC50) was 486 nM.

For a further assay, the target named is ATX (Homo sapiens (Human), UniProt Q13822). Nature of the assay: ATX enzyme inhibition assay (Amplex UltraRed/choline oxidase/HRP, 16:0 Lyso PC substrate). In kind it is biochemical. As to conditions: assay buffer pH 7.5; read-out: IC50 (nM) pH 7.5. The essentials:
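ATX (2× stock […]) preincubated with compound for 10 min at room temperature in assay buffer at pH 8.5 or 7.5. Reaction started with 16:0 Lyso PC, choline oxidase, HRP and Amplex UltraRed (2.5× working stock); fluorescence read kinetically (ex 550/em 590 nm) for 60 min.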
As for `CN(c1nc(-c2ccc(F)cc2)c(C#N)s1)c1c2c(nc3c(F)cc(N4CC5(CN(CC(=O)N6CC(O)C6)C5)C4)cc13)CCC2` [Example A9], the IC50 was 699 nM.

Regarding `CN(c1nc(-c2ccc(F)cc2)c(C#N)s1)c1c2c(nc3ccc(N4CCN(CC(=O)N5CC(O)C5)CC4)nc13)CCC2` [Example A10], the 50% inhibitory concentration (IC50) came out at 559 nM.

On to `CN(c1nc(-c2ccc(F)cc2)c(C#N)s1)c1c2c(nc3c(F)cc(N4CC5(CCN(CC(=O)N6CC(O)C6)CC5)C4)cc13)CCC2` [Example A11], for which the IC50 was 1180 nM.

For the molecule `CN(c1nc(-c2ccc(F)cc2)c(C#N)s1)c1c2c(nc3ccc(N4CCN(CC(=O)N5CC(O)C5)CC4)nc13)CCO2` [Example A12], the IC50 stood at 219 nM.

Regarding `CN(c1nc(-c2ccc(F)cc2)c(C#N)s1)c1c2c(nc3c(F)cc(N4CCN(CC(=O)N5CC(F)C5)CC4)cc13)CCC2` [Example A16], the IC50 was 282 nM.

For the molecule `CN(c1nc(-c2ccc(F)cc2)c(C#N)s1)c1c2c(nc3c(F)cc(N4CC5(CN(CC(=O)N6CC(CO)C6)C5)C4)cc13)CC2` [Example A18], the 50% inhibitory concentration (IC50) amounted to 228 nM.

As for `CN(c1nc(-c2ccc(F)cc2)c(C#N)s1)c1c2c(nc3c(F)cc(N4CCN(CC(=O)N5CC(O)C5)CC4)cc13)COC2` [Example A19], the IC50 was 413 nM.

Regarding `CN(c1nc(-c2ccc(F)cc2)c(C#N)s1)c1c2c(nc3cnc(N4CCN(CC(=O)N5CC(O)C5)CC4)cc13)CCC2` [Example A20], the IC50 is 645 nM.

Take `CN(c1nc(-c2ccc(F)cc2)c(C#N)s1)c1c2c(nc3ncc(N4CCN(CC(=O)N5CC(O)C5)CC4)cc13)CCC2` [Example A21]: the IC50 was found to be 125 nM.

The assay is the same for the next values; noted with them: assay buffer pH 8.5; read-out: IC50 (nM) pH 8.5.
`CN(c1nc(-c2ccc(F)cc2)c(C#N)s1)c1c2c(nc3c(F)cc(N4CC5(CN(CC(=O)N6CC(O)C6)C5)C4)cc13)CCC2` [Example A9]: the half-maximal inhibitory concentration (IC50) worked out at 86.8 nM.

`CN(c1nc(-c2ccc(F)cc2)c(C#N)s1)c1c2c(nc3ccc(N4CCN(CC(=O)N5CC(O)C5)CC4)nc13)CCC2` [Example A10]: the IC50 was determined as 60.7 nM.

`CN(c1nc(-c2ccc(F)cc2)c(C#N)s1)c1c2c(nc3c(F)cc(N4CC5(CCN(CC(=O)N6CC(O)C6)CC5)C4)cc13)CCC2` [Example A11]: the IC50 stood at 145 nM.

Turning to `CN(c1nc(-c2ccc(F)cc2)c(C#N)s1)c1c2c(nc3ccc(N4CCN(CC(=O)N5CC(O)C5)CC4)nc13)CCO2` [Example A12], the IC50 was found to be 22.3 nM.

As for `Cc1cc(N2CCN(CC(=O)N3CC(O)C3)CC2)cc2c(N(C)c3nc(-c4ccc(F)cc4)c(C#N)s3)c3c(nc12)CCC3` [Example A14], the IC50 worked out at 228 nM.

Regarding `CN(c1nc(-c2ccc(F)cc2)c(C#N)s1)c1c2c(nc3c(F)cc(N4CCN(CC(=O)N5CC(F)C5)CC4)cc13)CCC2` [Example A16], the IC50 was 75.7 nM.

On to `CN(c1nc(-c2ccc(F)cc2)c(C#N)s1)c1c2c(nc3c(F)cc(N4CC5(CN(CC(=O)N6CC(O)C6)C5)C4)cc13)CC2` [Example A17], for which the IC50 was 48.7 nM.

Consider `CN(c1nc(-c2ccc(F)cc2)c(C#N)s1)c1c2c(nc3c(F)cc(N4CC5(CN(CC(=O)N6CC(CO)C6)C5)C4)cc13)CC2` [Example A18], for which the IC50 amounted to 61.1 nM.

For the molecule `CN(c1nc(-c2ccc(F)cc2)c(C#N)s1)c1c2c(nc3c(F)cc(N4CCN(CC(=O)N5CC(O)C5)CC4)cc13)COC2` [Example A19], the IC50 amounted to 52.7 nM.

In the case of `CN(c1nc(-c2ccc(F)cc2)c(C#N)s1)c1c2c(nc3cnc(N4CCN(CC(=O)N5CC(O)C5)CC4)cc13)CCC2` [Example A20], the IC50 worked out at 84 nM.

Consider `CN(c1nc(-c2ccc(F)cc2)c(C#N)s1)c1c2c(nc3ncc(N4CCN(CC(=O)N5CC(O)C5)CC4)cc13)CCC2` [Example A21], for which the IC50 turned out to be 23.7 nM.

Turning to `CN(c1nc(-c2ccc(F)cc2)c(C#N)s1)c1c2c(nc3c(F)cc(N4CC5(CN(CC(=O)N6CC(O)C6)C5)C4)cc13)COC2` [Example A24], the IC50 is 181 nM.

Usually IC50 stands for the midpoint of a concentration-inhibition curve.
